Measurements published in paper PMC4445981, “The glutamate transport inhibitor DL-Threo-β-Benzyloxyaspartic acid (DL-TBOA) differentially affects SN38- and oxaliplatin-induced death of drug-resistant colorectal cancer cells” (BMC Cancer, 2015).
Like-named read-outs stand apart in the source and are kept apart here. Each block holds one compound with its values, some of them ahead of it.

What was measured:
[1] = test system: [3H]-D-Asp uptake (glutamate transporter activity) in HCT116-PAR cells; experiment: [3H]-D-Asp uptake assay, HCT116-PAR; assay type: cell-based, human
Description: (§1) We therefore next determined glutamate transporter activity (as uptake of the substrate [^3H]-D-Asp following a 6-min incubation in buffer supplemented with a tracer concentration of 100 nM [^3H]-D-Asp). […] To determine which transporter(s) was responsible for the [^3H]-D-Asp uptake, we assessed the effect of DL-TBOA, a nonselective inhibitor of EAATs, and UCPH-101, a specific SLC1A3 inhibitor [16, 28, 29]. […] Basal [^3H]-D-Asp uptake was decreased by about 60 % in SN38-resistant compared to parental HCT116 cells, whereas that in SN38-resistant LoVo cells was nearly tripled compared to parental LoVo cells.
(§2) The [^3H]-D-Asp uptake assay was performed essentially as in [30]. Briefly, cells were split into poly-D-lysine-coated white 96-well plates (PerkinElmer). A similar number of cells were seeded for HCT116 parental, HCT116-SN38 and HCT116-Oxa cell lines (7 × 10^4 cells/well) and LoVo parental, Lovo-SN38 and Lovo-Oxa cell lines (6 × 10^4 cells/well). 16–24 h later, culture medium was aspirated, and cells were washed once with 100 μl assay buffer (Hank’s Buffered Saline Solution supplemented with 20 mM HEPES, 1 mM CaCl2 and 1 mM MgCl2, pH 7.4). 50 μl assay buffer supplemented with 100 nM [^3H]-D-Asp and test compounds as indicated was added, and the plate was incubated at 37 °C for 6 min. Non-specific [^3H]-D-Asp uptake was determined in wells with 3 mM L-glutamate. The assay mixture was quickly removed, and wells were washed with 2 × 100 μl ice-cold assay buffer, followed by 150 μl Microscint™20 scintillation fluid (PerkinElmer). The plate was shaken for 1 h and counted in a Wallac 1450 MicroBeta Trilux scintillation counter (GMI, Ramsey, MN).

[2] = test system: [3H]-D-Asp uptake (glutamate transporter activity) in LoVo-Oxa cells; experiment: [3H]-D-Asp uptake assay, LoVo-Oxa; assay type: cell-based, human
Description: as §1, §2

[3] = test system: [3H]-D-Asp uptake in HCT116 and LoVo cells (parental and resistant); experiment: [3H]-D-Asp uptake assay, summary over cell lines; assay type: cell-based, human
Description: as §1, §2

SLC1A1 = conditions: at concentration up to > 400 fold higher than SLC1A3 IC50; cited from earlier work
[4] = test system: [3H]-D-Asp uptake (glutamate transporter activity) in LoVo-SN38 cells; experiment: [3H]-D-Asp uptake assay, LoVo-SN38; assay type: cell-based, human
Description: as §1, §2

[5] = test system: [3H]-D-Asp uptake (glutamate transporter activity) in HCT116-SN38 cells; experiment: [3H]-D-Asp uptake assay, HCT116-SN38; assay type: cell-based, human
Description: as §1, §2

[6] = test system: [3H]-D-Asp uptake (glutamate transporter activity) in LoVo-PAR cells; experiment: [3H]-D-Asp uptake assay, LoVo-PAR; assay type: cell-based, human
Description: as §1, §2

[7] = test system: [3H]-D-Asp uptake (glutamate transporter activity) in HCT116-Oxa cells; experiment: [3H]-D-Asp uptake assay, HCT116-Oxa; assay type: cell-based, human
Description: as §1, §2

SLC1A3 = conditions: cited from earlier work
[8] = Homo sapiens, read-out: IC50, [3H]-D-Asp uptake
[9] = Homo sapiens, read-out: pIC50 ± S.E.M., [3H]-D-Asp uptake (converted)

pIC50 ± S.E.M., [3H]-D-Asp uptake ([1]; HCT116-PAR, 100 nM [3H]-D-Asp, 6 min, 37 °C): < 4.0
IC50 ([1]; HCT116-PAR, 100 nM [3H]-D-Asp, 6 min, 37 °C, read-out: IC50, [3H]-D-Asp uptake): > 100 µM
pIC50 ± S.E.M., [3H]-D-Asp uptake ([2]; LoVo-Oxa, 100 nM [3H]-D-Asp, 6 min, 37 °C): < 4.0
IC50 ([2]; LoVo-Oxa, 100 nM [3H]-D-Asp, 6 min, 37 °C, read-out: IC50, [3H]-D-Asp uptake): > 100 µM
pIC50 ± S.E.M., [3H]-D-Asp uptake ([4]; LoVo-SN38, 100 nM [3H]-D-Asp, 6 min, 37 °C): < 4.0
IC50 ([4]; LoVo-SN38, 100 nM [3H]-D-Asp, 6 min, 37 °C, read-out: IC50, [3H]-D-Asp uptake): > 100 µM
pIC50 ± S.E.M., [3H]-D-Asp uptake ([5]; HCT116-SN38, 100 nM [3H]-D-Asp, 6 min, 37 °C): < 4.0
IC50 ([5]; HCT116-SN38, 100 nM [3H]-D-Asp, 6 min, 37 °C, read-out: IC50, [3H]-D-Asp uptake): > 100 µM
pIC50 ± S.E.M., [3H]-D-Asp uptake ([6]; LoVo-PAR, 100 nM [3H]-D-Asp, 6 min, 37 °C): < 4.0
IC50 ([6]; LoVo-PAR, 100 nM [3H]-D-Asp, 6 min, 37 °C, read-out: IC50, [3H]-D-Asp uptake): > 100 µM
pIC50 ± S.E.M., [3H]-D-Asp uptake ([7]; HCT116-Oxa, 100 nM [3H]-D-Asp, 6 min, 37 °C): < 4.0
IC50 ([7]; HCT116-Oxa, 100 nM [3H]-D-Asp, 6 min, 37 °C, read-out: IC50, [3H]-D-Asp uptake): > 100 µM
Structure (SMILES): COc1ccc(C2C(C#N)=C(N)OC3=C2C(=O)CC(c2cccc4ccccc24)C3)cc1 (stereo not shown) [UCPH]
effect on basal [3H]-D-Asp uptake ([3]; all cell lines, concentrations up to 100 μM): essentially unaffected
activity at SLC1A1 (SLC1A1): inactive
IC50 values for SLC1A3 (SLC1A3): high-nanomolar

IC50 [1, 8]: 21 µM
IC50 [1, 9]: 21.4 µM
IC50 [2, 8]: 23 µM
IC50 [2, 9]: 22.9 µM
IC50 [4, 8]: 28 µM
IC50 [4, 9]: 28.8 µM
IC50 [5, 8]: 21 µM
IC50 [5, 9]: 21.4 µM
IC50 [6, 8]: 26 µM
IC50 [6, 9]: 25.7 µM
IC50 [7, 8]: 21 µM
IC50 [7, 9]: 21.4 µM
Structure (SMILES): N[C@@H](CCC(=O)O)C(=O)O [L-Glu, L-glutamate]
IC50 ([3]; Homo sapiens, read-out: IC50 values, competitive inhibition of [3H]-D-Asp uptake): 20 to 30 µM
